Laboratory results: US6552062B1, “Indazole derivatives with 5-HT2 receptor activity” (Vernalis Research Limited, priority 1998, dated 2003)
pEC50, pKi: −log10 of the molar value. Counter-ions that a name gives are not always drawn.

Experiments:
human 5-HT2B receptors = target: T1, human 5-HT2B receptors (Homo sapiens, UniProt P41595); test: Binding to 5-HT2B receptor, [3H]-5-HT radioligand, Method (b); conditions: human 5-HT2B receptors in a CHO cell line, read-out: Method (b) Ki (2B)
T1 construct: expressed in transfected cells; host or cells: CHO cell line
T1 sequence (P41595 whole entry): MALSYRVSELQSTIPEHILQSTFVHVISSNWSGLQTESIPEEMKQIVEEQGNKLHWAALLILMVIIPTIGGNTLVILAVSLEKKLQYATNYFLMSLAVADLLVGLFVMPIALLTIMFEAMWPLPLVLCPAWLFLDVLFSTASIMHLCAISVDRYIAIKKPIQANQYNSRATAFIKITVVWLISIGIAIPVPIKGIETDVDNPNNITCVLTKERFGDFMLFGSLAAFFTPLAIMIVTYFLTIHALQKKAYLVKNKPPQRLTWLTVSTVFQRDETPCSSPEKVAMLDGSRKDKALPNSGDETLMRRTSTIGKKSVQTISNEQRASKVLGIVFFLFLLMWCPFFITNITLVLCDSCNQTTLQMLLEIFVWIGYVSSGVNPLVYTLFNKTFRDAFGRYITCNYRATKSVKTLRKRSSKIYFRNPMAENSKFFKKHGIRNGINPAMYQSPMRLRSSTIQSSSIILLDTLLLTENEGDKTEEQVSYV
Method: (§1) The binding of compounds of formula I to serotonin receptors was determined in vitro by standard methods. The preparations were investigated in accordance with the assays given hereinafter.
Method (b): For the binding to the 5-HT2B receptor the 5-HT2B receptors were radiolabeled with [^3H]-5-HT. The affinity of the compounds for human 5-HT2B receptors in a CHO cell line was determined according to the procedure of K. Schmuck, C. Ullmer, P. Engels and H. Lubbert, FEBS Lett., 1994, 342, 85-90.

human 5-HT2C [1] = target: T2, human 5-HT2C (Homo sapiens, UniProt P28335); test: Binding to 5-HT2C receptor, [3H]-5-HT radioligand, Method (a); design: expressed in transfected cells; host or cells: CHO cell line; conditions: 5-HT2C receptors in a CHO cell line, read-out: Method (a) Ki (2C)
T2 sequence (P28335 33-458): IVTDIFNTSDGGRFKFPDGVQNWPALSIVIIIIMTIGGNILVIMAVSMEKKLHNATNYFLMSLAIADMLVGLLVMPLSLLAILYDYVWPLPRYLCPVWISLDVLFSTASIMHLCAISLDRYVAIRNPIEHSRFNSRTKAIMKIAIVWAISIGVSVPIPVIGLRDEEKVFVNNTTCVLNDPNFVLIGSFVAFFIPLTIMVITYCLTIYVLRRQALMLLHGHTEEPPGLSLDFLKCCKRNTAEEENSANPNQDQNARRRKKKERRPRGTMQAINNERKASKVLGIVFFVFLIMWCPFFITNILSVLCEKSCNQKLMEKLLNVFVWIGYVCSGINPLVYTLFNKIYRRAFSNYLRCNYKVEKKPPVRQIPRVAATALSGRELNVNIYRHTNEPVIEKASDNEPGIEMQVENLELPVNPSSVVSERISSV
Method: as §1
Method (a): For the binding to the 5-HT2C receptor the 5-HT2C receptors were radiolabeled with [^3H]-5-HT. The affinity of the compounds for 5-HT2C receptors in a CHO cell line was determined according to the procedure of D. Hoyer, G. Engel and H. O. Kalkman, European J Pharmacol., 1985, 118, 13-23.

human 5-HT2C [2] = target: T2, human 5-HT2C; test: Functional activity, FLIPR calcium assay, CHO cells expressing human 5-HT2C; type: cell-based; design: expressed in transfected cells; host or cells: CHO cells; conditions: for pEC50: CHO cells, FLIPR, Fluo-3-AM, read-out: h5-HT2C EC50; for Emax: CHO, maximum fluorescent signal relative to 10 μM 5-HT (defined as 100%), read-out: h5-HT2C Relative Efficacy (%)
Method: (§2) The functional activity of compounds of formula (I) was assayed using a Fluorimetric Imaging Plate reader (FLIPR). CHO cells expressing the human 5-HT2C or human 5-HT2A receptors were counted and plated into standard 96 well microtitre plates on the day before testing to give a confluent monolayer. The cells were then dye loaded with the calcium sensitive dye, Fluo-3-AM. Unincorporated dye was removed using an automated cell washer to leave a total volume of 100 μL/well of assay buffer (Hanks balanced salt solution containing 20 mM Hepes and 2.5 mM probenecid). The drug (dissolved in 50 μL of the assay buffer) was added at a rate of 70 μL/sec to each well of the FLIPR 96 well plate during fluorescence measurements. The measurements were taken at 1 sec intervals and the maximum fluorescent signal was measured (approx 10-15 secs after drug addition) and compared with the response produced by 10 μM 5-HT (defined as 100%) to which it was expressed as a percentage response (relative efficacy). Dose response curves were constructed using Graphpad Prism (Graph Software Inc.).

human 5-HT2A receptors = target: T3, human 5-HT2A receptors (Homo sapiens, UniProt P28223); test: Functional activity, FLIPR calcium assay, CHO cells expressing human 5-HT2A; type: cell-based; conditions: for pEC50: CHO cells, FLIPR, Fluo-3-AM, read-out: h5-HT2A EC50; for h5-HT2A Relative Efficacy (%): maximum fluorescent signal relative to 10 μM 5-HT (defined as 100%)
T3 construct: expressed in transfected cells; host or cells: CHO cells
T3 sequence (P28223 whole entry): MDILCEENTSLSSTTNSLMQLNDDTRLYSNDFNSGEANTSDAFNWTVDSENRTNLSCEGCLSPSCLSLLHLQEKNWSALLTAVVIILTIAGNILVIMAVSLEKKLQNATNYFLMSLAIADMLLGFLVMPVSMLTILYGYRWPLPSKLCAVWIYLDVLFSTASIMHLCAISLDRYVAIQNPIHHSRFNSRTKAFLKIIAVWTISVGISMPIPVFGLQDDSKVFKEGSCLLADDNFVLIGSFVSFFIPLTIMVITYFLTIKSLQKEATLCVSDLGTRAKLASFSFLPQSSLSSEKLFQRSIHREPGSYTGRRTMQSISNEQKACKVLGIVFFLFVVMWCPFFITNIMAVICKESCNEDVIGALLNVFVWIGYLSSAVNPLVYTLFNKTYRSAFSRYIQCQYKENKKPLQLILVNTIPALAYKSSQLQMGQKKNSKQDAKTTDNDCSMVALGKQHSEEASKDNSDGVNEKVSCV
Method: as §2

SMILES	melting point [°C]	pKi (human 5-HT2B receptors)	pKi (human 5-HT2C [1])	pEC50 (human 5-HT2C [2])	Emax (human 5-HT2C [2]) [%]	pEC50 (human 5-HT2A receptors)	h5-HT2A Relative Efficacy (%) (human 5-HT2A receptors)
COc1ccc2c(C)nn(C[C@H](C)N)c2c1 (as salt: fumarate) [Example 2, (S)-1-(6-Methoxy-3-methylindazol-1-yl)-2-propylamine Fumarate]	180 to 181						
Cc1nn(C[C@H](C)N)c2cc(F)c(F)cc12 (as salt: fumarate) [Example 3, (S)-1-(5,6-Difluoro-3-methylindazol-1-yl)-2-propylamine Fumarate]	160 to 161						
Cc1nn(C[C@H](C)N)c2cc(Cl)c(F)cc12 (as salt: fumarate) [Example 4, (S)-1-(6-Chloro-5-fluoro-3-methylindazol-1-yl)-2-propylamine Fumarate]	158 to 159						
CCc1nn(C[C@H](C)N)c2cc(F)ccc12 (as salt: fumarate) [Example 6, (S)-1-(3-Ethyl-6-fluoroindazol-1-yl)-2-propylamine Fumarate]	143 to 145						
CCc1nn(C[C@H](C)N)c2cc(Br)ccc12 (as salt: fumarate) [Example 7, (S)-1-(6-Bromo-3-ethylindazol-1-yl)-2-propylamine Fumarate]	148 to 150						
CCc1nn(C[C@H](C)N)c2cc(SC)ccc12 (as salt: fumarate) [Example 8, (S)-1-(3-Ethyl-6-methylthioindazol-1-yl)-2-propylamine Fumarate]	147 to 149						
Cc1nn(CC(C)N)c2ccccc12 (racemic) [Example 1, (RS)-1-(3-Methylindazol-1-yl)-2-propylamine Fumarate]		6.62	6.37	6.02	55		
COc1ccc2c(C)nn(C[C@H](C)N)c2c1 [Example 2, (S)-1-(6-Methoxy-3-methylindazol-1-yl)-2-propylamine Fumarate]		6.87	6.68	7.36	74	6.97	59
Cc1nn(C[C@H](C)N)c2cc(F)c(F)cc12 [Example 3, (S)-1-(5,6-Difluoro-3-methylindazol-1-yl)-2-propylamine Fumarate]		7.20	6.85	7.08	67	6.82	50
Cc1nn(C[C@H](C)N)c2cc(Cl)c(F)cc12 [Example 4, (S)-1-(6-Chloro-5-fluoro-3-methylindazol-1-yl)-2-propylamine Fumarate]		7.59	7.12	7.32	76	6.86	65
CCc1nn(C[C@H](C)N)c2cc(C(F)(F)F)ccc12 [Example 5, (S)-1-(3-Ethyl-6-trifluoromethylindazol-1-yl)-2-propylamine Fumarate]				6.06	73		
CCc1nn(C[C@H](C)N)c2cc(F)ccc12 [Example 6, (S)-1-(3-Ethyl-6-fluoroindazol-1-yl)-2-propylamine Fumarate]				7.28	47	6.54	32
CCc1nn(C[C@H](C)N)c2cc(Br)ccc12 [Example 7, (S)-1-(6-Bromo-3-ethylindazol-1-yl)-2-propylamine Fumarate]				7.06	69	6.13	39
CCc1nn(C[C@H](C)N)c2cc(SC)ccc12 [Example 8, (S)-1-(3-Ethyl-6-methylthioindazol-1-yl)-2-propylamine Fumarate]		7.33	7.43	8.10	81	6.55	48
